± gives the uncertainty stated by the source.
Test: xn = mol fraction of the nth substance listed

COC(=O)OC + CC[n+]1ccn(C)c1C.O=S(=O)([N-]S(=O)(=O)C(F)(F)F)C(F)(F)F
101.3 kPa, x2 = 0
Details | viscosity [mPa·s]
288.15 K | 0.668 ± 0.015
293.15 K | 0.628 ± 0.014
298.15 K | 0.588 ± 0.013
303.15 K | 0.553 ± 0.012
308.15 K | 0.524 ± 0.011
313.15 K | 0.498 ± 0.011

C[N+]1(CCOCCOCC[N+]2(C)CCCC2)CCCC1.N#C[N-]C#N.N#C[N-]C#N + CC[n+]1ccn(C)c1.N#C[N-]C#N + O=S(=O)([N-]S(=O)(=O)C(F)(F)F)C(F)(F)F.[Li+]
electrical conductivity [S/m], 100 kPa
Details | 298 K | 303 K | 313 K | 323 K | 333 K | 343 K
x1 = 0.2606, x2 = 0.6156 | 0.561 ± 0.022 | 0.658 ± 0.026 | 0.963 ± 0.039 | 1.27 ± 0.051 | 1.61 ± 0.064 | 1.94 ± 0.078
x1 = 0.2713, x2 = 0.6408 | 0.911 ± 0.036 | 1.01 ± 0.04 | 1.37 ± 0.055 | 1.71 ± 0.068 | 2.12 ± 0.085 | 2.54 ± 0.1

CC[n+]1ccn(C)c1.N#C[S-] + [N-]=C=S.[NH4+]
100 kPa, x2 = 0
Details | electrical conductivity [S/m] | viscosity [mPa·s]
323.15 K | 4.38 ± 0.18 | 11.49 ± 0.54
348.15 K | – | 6.87 ± 0.32
353.15 K | – | 6.17 ± 0.29

CC(=O)[O-].COCCn1cc[n+](C)c1 + O
100 kPa
Details | electrical conductivity [S/m] | viscosity [mPa·s]
293.15 K, x1 = 0.8395 | 0.408 ± 0.02 | 54.79 ± 0.47
293.15 K, x1 = 0.8942 | 0.338 ± 0.02 | 58.87 ± 0.55
303.15 K, x1 = 0.8942 | 0.495 ± 0.02 | 32.66 ± 0.49
308.15 K, x1 = 0.8659 | 0.636 ± 0.02 | 25.93 ± 0.45
318.15 K, x1 = 0.8659 | 0.925 ± 0.02 | 17.73 ± 0.42

CCCCCCCCCCCCCCCC[N+](C)(C)C.[Br-] + OC[C@@H](O)[C@@H](O)[C@H](O)[C@@H](O)CO + O
viscosity [mPa·s], 100 kPa
Details | 298.15 K | 308.15 K | 318.15 K
x2 = 0, x1 = 7.21e-06 | 0.896 ± 0.06 | 0.742 ± 0.06 | 0.617 ± 0.06
x2 = 0, x1 = 1.442e-05 | 0.898 ± 0.06 | 0.744 ± 0.06 | 0.617 ± 0.06
x2 = 0, x1 = 2.162e-05 | 0.9 ± 0.06 | 0.745 ± 0.06 | 0.617 ± 0.06

CC[n+]1ccn(C)c1.N#C[S-] + CC[n+]1ccn(C)c1.O=S(=O)([O-])C(F)(F)F
Details | viscosity [mPa·s]
293 K, 100 kPa, x1 = 0.5 | 36.4 ± 0.8

CCCCCCCCCCCC[N+]1(C)CCCCC1.O=C([O-])c1ccccc1O + O
electrical conductivity [S/m], 100 kPa
Details | x1 = 3.55e-06 | x1 = 8.89e-06 | x1 = 2.712e-05
298.15 K | 0.00167 ± 0.00087 | – | 0.0079 ± 0.0027
328.15 K | – | 0.0063 ± 0.0046 | –

O=S=O + OCCO + C[P+](c1ccccc1)(c1ccccc1)c1ccccc1.[Br-]
100 kPa
Details | viscosity [mPa·s]
303.15 K, x1 = 0.02458, x2 = 0.9516 | 18.4 ± 0.8
313.15 K, x1 = 0.01623, x2 = 0.9598 | 14 ± 0.6
323.15 K, x1 = 0.01303, x2 = 0.9629 | 10.1 ± 0.4
333.15 K, x1 = 0.01147, x2 = 0.9644 | 7.5 ± 0.4
343.15 K, x1 = 0.009705, x2 = 0.9661 | 6 ± 0.3

CCCCCCCCCCCCCCCC[n+]1ccccc1.[Cl-] + NCC(=O)NCC(=O)O + O
electrical conductivity [S/m], 100 kPa
Details | x1 = 8.993e-05, x2 = 0.001802 | x1 = 8.996e-05, x2 = 0.001442 | x1 = 8.999e-05, x2 = 0.001082 | x1 = 9.003e-05, x2 = 0.0007214 | x1 = 9.006e-05, x2 = 0.0003609 | x1 = 9.009e-05, x2 = 0
298.15 K | 0.024 ± 0.001 | 0.023 ± 0.001 | 0.022 ± 0.001 | 0.021 ± 0.001 | 0.02 ± 0.001 | 0.02 ± 0.001
303.15 K | 0.025 ± 0.001 | 0.024 ± 0.001 | 0.023 ± 0.001 | 0.022 ± 0.001 | 0.021 ± 0.001 | 0.021 ± 0.001
308.15 K | 0.027 ± 0.001 | 0.026 ± 0.001 | 0.024 ± 0.001 | 0.023 ± 0.001 | 0.022 ± 0.001 | 0.021 ± 0.001
313.15 K | 0.028 ± 0.001 | 0.027 ± 0.001 | 0.025 ± 0.001 | 0.024 ± 0.001 | 0.023 ± 0.001 | 0.023 ± 0.001

CC[n+]1ccn(C)c1.N#C[S-] + O
100 kPa
Details | viscosity [mPa·s]
288.15 K, x2 = 0.9443 | 1.96 ± 0.02
293.15 K, x2 = 0.1006 | 22.55 ± 0.44
293.15 K, x2 = 0.7981 | 4.08 ± 0.06
293.15 K, x2 = 0.9105 | 2.27 ± 0.03
303.15 K, x2 = 0.1948 | 13.75 ± 0.27
303.15 K, x2 = 0.4011 | 9.55 ± 0.17
303.15 K, x2 = 0.6887 | 4.72 ± 0.07
308.15 K, x2 = 0 | 16.39 ± 0.35
308.15 K, x2 = 0.1948 | 12.02 ± 0.23
308.15 K, x2 = 0.6043 | 5.31 ± 0.08
308.15 K, x2 = 0.6887 | 4.19 ± 0.07
313.15 K, x2 = 0.1006 | 12.15 ± 0.24
313.15 K, x2 = 0.9105 | 1.44 ± 0.02
313.15 K, x2 = 0.9506 | 1.07 ± 0.01
318.15 K, x2 = 0 | 12.43 ± 0.26
318.15 K, x2 = 0.1948 | 9.38 ± 0.18

CCCC(=O)[O-].CC[NH+](CC)CCO + CCCC[n+]1ccn(C)c1.COP(=O)([O-])OC
101 kPa
Details | viscosity [mPa·s]
278.15 K, x1 = 0.8006 | 196.8 ± 5.1
278.15 K, x1 = 1 | 189 ± 5.1
283.15 K, x1 = 0.6001 | 182.3 ± 4.4
283.15 K, x1 = 1 | 133.9 ± 3.3
288.15 K, x1 = 0.1023 | 864 ± 35
288.15 K, x1 = 0.6613 | 121.1 ± 2.6
293.15 K, x1 = 0.3985 | 163.9 ± 3.7
293.15 K, x1 = 0.498 | 123.1 ± 2.6
293.15 K, x1 = 0.6001 | 99.4 ± 2
293.15 K, x1 = 0.8788 | 74.2 ± 1.5
298.15 K, x1 = 0.1989 | 264.3 ± 6.8
303.15 K, x1 = 0.1989 | 194.8 ± 4.4
303.15 K, x1 = 0.6001 | 58.8 ± 1.1
308.15 K, x1 = 0.3985 | 73.2 ± 1.3
313.15 K, x1 = 0.3026 | 78 ± 1.3
313.15 K, x1 = 0.498 | 45.11 ± 0.79
313.15 K, x1 = 0.6613 | 33.88 ± 0.62
318.15 K, x1 = 0.1023 | 124.4 ± 2.2
318.15 K, x1 = 0.6001 | 30.12 ± 0.54
318.15 K, x1 = 0.8006 | 23.35 ± 0.46
323.15 K, x1 = 0.1989 | 69.7 ± 1
323.15 K, x1 = 0.6613 | 22.66 ± 0.42
328.15 K, x1 = 0.6001 | 20.62 ± 0.37
338.15 K, x1 = 0.6613 | 13.49 ± 0.25
338.15 K, x1 = 0.8006 | 11.39 ± 0.22
338.15 K, x1 = 1 | 9.73 ± 0.21
343.15 K, x1 = 0.1989 | 31.59 ± 0.46
343.15 K, x1 = 0.3985 | 18.82 ± 0.31
343.15 K, x1 = 0.6001 | 12.63 ± 0.23
348.15 K, x1 = 0.498 | 13.05 ± 0.23
353.15 K, x1 = 0.3026 | 17.55 ± 0.27
353.15 K, x1 = 0.8006 | 7.3 ± 0.14
353.15 K, x1 = 0.8788 | 6.78 ± 0.14
353.15 K, x1 = 1 | 6.11 ± 0.13
358.15 K, x1 = 0.3985 | 12.24 ± 0.2
358.15 K, x1 = 0.6613 | 7.62 ± 0.14
358.15 K, x1 = 1 | 5.31 ± 0.11
368.15 K, x1 = 0.3026 | 11.71 ± 0.18
368.15 K, x1 = 1 | 4.09 ± 0.09

CC[n+]1ccn(C)c1.N#C[S-] + CC[n+]1ccn(C)c1.N#C[N-]C#N
100 kPa, x1 = 1
Details | electrical conductivity [S/m] | viscosity [mPa·s]
318.15 K | 3.92 ± 0.16 | 12.98 ± 0.61
328.15 K | – | 10.25 ± 0.48
338.15 K | – | 8.3 ± 0.39
343.15 K | – | 7.53 ± 0.36

C[N+](C)(C)CCC[N+]1(C)CCCCC1.N#C[N-]C#N.N#C[N-]C#N + CC#N
100 kPa
Details | viscosity [mPa·s]
288.15 K, x1 = 0.7996 | 2305 ± 270
293.15 K, x1 = 0.0999 | 3.69 ± 0.37
293.15 K, x1 = 1 | 4503 ± 560
298.15 K, x1 = 0.3001 | 37.7 ± 3.8
298.15 K, x1 = 0.5002 | 181 ± 19
298.15 K, x1 = 1 | 2819 ± 340
303.15 K, x1 = 0.3998 | 69.5 ± 7
308.15 K, x1 = 0.0999 | 2.98 ± 0.3
308.15 K, x1 = 0.3001 | 26.5 ± 2.7
308.15 K, x1 = 0.3998 | 56.5 ± 5.7
308.15 K, x1 = 0.5002 | 109 ± 11
313.15 K, x1 = 0.2001 | 9.24 ± 0.93
313.15 K, x1 = 0.8998 | 545 ± 59
318.15 K, x1 = 0.0999 | 2.68 ± 0.27
318.15 K, x1 = 0.2001 | 8.26 ± 0.83
318.15 K, x1 = 0.5002 | 70.4 ± 7.1
318.15 K, x1 = 0.7001 | 163 ± 17
318.15 K, x1 = 1 | 618 ± 67
323.15 K, x1 = 0.3001 | 17.3 ± 1.7
323.15 K, x1 = 0.6 | 91.8 ± 9.3
323.15 K, x1 = 0.7001 | 130 ± 13
328.15 K, x1 = 0.2001 | 6.82 ± 0.69
328.15 K, x1 = 0.5002 | 48.7 ± 4.9
328.15 K, x1 = 0.6 | 74.3 ± 7.5
333.15 K, x1 = 0.5002 | 41.6 ± 4.2
333.15 K, x1 = 0.8998 | 183 ± 19

Cc1ncc(C[n+]2csc(CCO)c2C)c(N)n1.Cl.[Cl-] + O + CCCC[N+](CCCC)(CCCC)CCCC.O=S(=O)([O-])O
viscosity [mPa·s], 101 kPa
Details | x1 = 0.0003639, x3 = 0 | x1 = 0.0006573, x3 = 0 | x1 = 0.0009524, x3 = 0 | x1 = 0.001251, x3 = 0 | x1 = 0.001553, x3 = 0 | x1 = 0.001856, x3 = 0
298.15 K | 0.9024 ± 0.0091 | 0.914 ± 0.0092 | 0.9244 ± 0.0092 | 0.9372 ± 0.0093 | 0.9488 ± 0.0094 | 0.959 ± 0.0094
308.15 K | 0.7301 ± 0.0083 | 0.7393 ± 0.0083 | 0.7485 ± 0.0083 | 0.7576 ± 0.0084 | 0.768 ± 0.0084 | 0.7772 ± 0.0085
318.15 K | 0.6037 ± 0.0077 | 0.6116 ± 0.0077 | 0.6196 ± 0.0077 | 0.6275 ± 0.0078 | 0.6343 ± 0.0078 | 0.6413 ± 0.0078

— the CheMixHub ionic liquid set
